From US20050186137A1, “Novelty-induced hypophagia-based assays for identifying agents to treat anxiety and depression” (priority 2003, published 2005)

System: BALB/cJ mice
Assay: Novelty induced hypophagia test
Type: in vivo, mouse
Description: For chronic fluoxetine studies in BALB/cJ mice, 60 male BALB/cJ mice were tested in the OF for 30 min on days 19 or 20 of chronic fluoxetine treatment. Mice were then pretested and tested in the modified FST on days 21 and 22, respectively. Animals were then allowed to adapt to being singly housed, and were trained for NIH on days 25-27. Home cage and novel cage testing occurred on days 28 and 29, respectively. Mice were then assessed for PPI on days 34 or 35.
Studies of subchronic fluoxetine were conducted using separate groups of 60 male BALB/cJ mice to prevent fluoxetine treatment from exceeding one week. One group was tested in the OF after one day of subchronic fluoxetine treatment. Mice were then pretested after 6 and tested after 7 days of subchronic fluoxetine treatment in the modified FST. A second group of BALB/cJ mice began fluoxetine treatment after being singly housed. They were then tested in the NIH test after 4 (home) and 5 (novel) days of subchronic fluoxetine treatment. A third group was tested for PPI after one or two days of subchronic fluoxetine treatment.
Novelty induced hypophagia test: Mice were singly housed several days before training began. For three consecutive days of training, mice were presented with diluted (1:3; milk:water) sweetened condensed milk (Carnation) in pipettes in the home cage for 30 min. Testing occurred on days 4 and 5 when mice were presented with the milk, and latency to drink and the volume consumed were recorded every five minutes for 30 min. On day 4, testing occurred in the home cage under dim lighting (approx. 50 lux). Mice were briefly removed from the cage to position pipettes, and testing began when mice were returned to their cages. On day 5, mice were placed into new cages of the same dimensions without shavings under bright lighting (approx. 1200 lux). White paper was placed under cages to enhance aversiveness on day 5.
Novelty induced hypophagia test: For latency scores, a maximum cut-off of 600 sec was used. Two-factor ANOVAs with home/novel cage condition as a within-subjects factor and fluoxetine as a between-subjects factor were applied to latency values. Main effects of fluoxetine or significant interactions of fluoxetine and home/novel cage condition were resolved using post-hoc ANOVAs with adjusted p-values and/or Newman-Keuls post-hoc tests. For consumption data, a three-factor ANOVA with block (5 min intervals) and home/novel cage condition as within-subjects factors and fluoxetine as a between-subjects factor was used to assess whether the novel cage was sufficiently anxiogenic to reduce consumption. Two-factor ANOVAs with block as a within-subjects factor and fluoxetine as a between-subjects factor were applied separately to consumption values for the home and the novel cage. Main effects of fluoxetine or significant interactions were resolved using post-hoc ANOVAs with adjusted p-values and/or Newman-Keuls post-hoc tests.

[1] = subchronic (4-5 days) fluoxetine

CNCCC(Oc1ccc(C(F)(F)F)cc1)c1ccccc1 (centres unmarked) [fluoxetine]
milk consumption in the home cage, first block (0-5 min) (chronic 25 mg/kg/day): increased milk consumption compared to control
milk consumption in the novel cage, first block (0-5 min) (chronic 18 and 25 mg/kg/day): increased milk consumption compared to the 0 and 10 mg/kg/day doses
latency difference scores (novel minus home) (chronic 18 and 25 mg/kg/day vs control): control animals exhibited significantly larger difference scores
latency to drink milk in the home cage (chronic fluoxetine): reduced the latency to drink milk in the novel, but not the home cage
latency to drink in the novel cage (chronic fluoxetine, all three doses (10, 18, 25 mg/kg/day)): reduced the latency to drink relative to control in a dose-related fashion
consumption in the home cage, post-hoc tests (subchronic (4-5 days) 25 mg/kg/day): only a trend for the 25 mg/kg/day dose to increase consumption relative to control
latency to drink [1]: no effect on any measure of latency
milk consumption [1]: no effect
